Tests used:
[1] = Pharmacokinetics of cromolyn sodium in plasma and lung after single intraperitoneal injection; type: in vivo, male BALB/c mice; conditions: single IP injection, 10 mg/kg and 100 mg/kg
Method: BALB/c male mice, weighing 22±2 g, were provided by BioLasco Taiwan. All animals were maintained in a well-controlled temperature (20-24° C.) and humidity (30%-70%) environment with 12 hours light/dark cycles. The mice were given free access to a standard lab diet [MFG (Oriental Yeast Co., Ltd., Japan)] and autoclaved tap water.
The solution was administered to the mice by IP injection at concentrations of 10 mg/kg and 100 mg/kg. The dosing volume for both dose strengths was 5 mL/kg.
The mice were sedated under general inhalant anesthesia (3% isoflurane) for blood collection by cardiac puncture. […]
The plasma samples were processed using acetonitrile (ACN) precipitation and analyzed by LC-MS/MS. […] The processed plasma samples were stored at −70° C. until receiving LC-MS/MS analysis, at which time peak areas were recorded, and the concentrations of the test substance in the unknown plasma samples were determined using the respective calibration curve. The reportable linear range of the assay was determined, along with the lower limit of quantitation (LLQ).
Each lung was homogenized in 1.5 mL cold phosphate-buffered saline (PBS) at pH 7.4 for 10 seconds on ice. The lung homogenate was centrifuged at 5,400×g for 15 minutes at 4° C., and the supernatant was subsequently processed using ACN precipitation and analyzed by LC-MS/MS. […]

[2] = available formulations of DSCG, not the compositions of the disclosure; cited from earlier work

- Exposure of cromolyn sodium in plasma and lungs [1]: Significant exposure
Compound: O=C([O-])c1cc(=O)c2c(OCC(O)COc3cccc4oc(C(=O)O)cc(=O)c34)cccc2o1.[Na+] [cromolyn sodium, disodium 5,5′-(2-hydroxypropane-1,3-diyl)bis(oxy)bis(4-oxo-4H-chromene-2-carboxylate)]
- Bioavailability of the available formulations [2]: approximately 1%
